The values below come from US10428099B2, “Pharmaceutical co-crystal composition and use thereof” (SYN-NAT PRODUCTS ENTERPRISE LLC, priority 2015, dated 2019).

The test system of test [1] is HL-7002 cells. Description: cells. To be noted: Homo sapiens, Hepatocyte.
Test [2] deals with HEK293 cells. The following applies: step-wise concentrations 0.01 to 300 μM, OD490, FIG. 4 and FIG. 8.
In test [3] the test system is PC-3 cells. Description: MTS cell viability assay (CellTiter 96 AQueous One) in PC-3 prostate cancer cells. Type of test: cell-based, human. The following applies: step-wise concentrations 0.01 to 300 μM, OD490, FIG. 1.
Method: (§1) The index of cell growth repression ratio was obtained by comparing the OD490 data of treatment group to the negative control. The drug response rate IC50 was calculated with the SPSS 16.0 system.
(§2) Cell culture: Prostate cancer cell lines LNCaP and PC-3 were purchased from ATCC (Manassas, Va.). […] The cells were cultured in RPMI+5% Fetal Bovine Serum (FBS).
(§3) The cells treated with the solvents were used as the negative control, and cisplatin and docetaxel were used as the positive controls. The cells were monitored daily, and the cell viability was evaluated with the Promega CellTiter 96 AQueous One Solution Cell Proliferation Assay (Promega, Madison, Wis., USA) according to the manufacture manuals. The cell viability was monitored at OD490 reading in a bio-spectrometer (Perkin Elmer, Walthan, Mass., USA).
(§4) Data analysis: The OD490 reading data were collected hourly from 1 h to 4 h after the addition of lysis buffer. The index of cell growth repression ratio was obtained by comparing the OD490 data of treatment to the negative control. The drug response rate IC50 was calculated with the SPSS 16.0.
In test [4] the test system is HL-7002 cells. To be noted: step-wise concentrations 0.01 to 300 μM, OD490, FIG. 3 and FIG. 7.
The subject of test [5] is LNCaP cells. Description: MTS cell viability assay (CellTiter 96 AQueous One) in LNCaP prostate cancer cells. The format is cell-based, human. To be noted: step-wise concentrations 0.01 to 300 μM, OD490, FIG. 2.
Method: as §1, §2, §3
Data analysis: The OD490 reading data were collected hourly from 1 h to 4 h after the addition of lysis buffer. The index of cell growth repression ratio was obtained by comparing the OD490 data of treatment to the negative control.
The subject of test [6] is HT29 cells. Description: MTS cell viability assay in colorectal cancer cell line HT29. Type of test: cell-based. The following applies: step-wise concentrations 0.01 to 300 μM, OD490, FIG. 6.
Method: HT29 cells are a colorectal cancer cell line. […] The index of cell growth repression ratio was obtained by comparing the OD490 data of treatment group to the negative control. The drug response rate IC50 was calculated with the SPSS 16.0 system.
(§5) The cells were cultured in RPMI+5% Fetal Bovine Serum (FBS).
(§6) The cells were monitored daily, and the cell viability was evaluated with the Promega CellTiter 96 AQueous One Solution Cell Proliferation Assay (Promega, Madison, Wis., USA) according to the manufacture manuals. The cell viability was monitored at OD490 reading in a bio-spectrometer (Perkin Elmer, Walthan, Mass., USA).
as §4
Test [7] deals with HCT-116 cells. Description: MTS cell viability assay in colorectal cancer cell line HCT-116. Type of test: cell-based. To be noted: step-wise concentrations 0.01 to 300 μM, OD490, FIG. 5, read-out: IC50 for the reduction of HCT-116 cell number.
Method: as §1, §5, §6, §4

Read-outs that look alike come from different tables or passages of the source.

In turn, `CC(=O)O[C@@]12CO[C@@H]1C[C@H](O)[C@@]1(C)C(=O)[C@H](O)C3=C(C)[C@@H](OC(=O)[C@H](O)[C@@H](NC(=O)OC(C)(C)C)c4ccccc4)C[C@@](O)([C@@H](OC(=O)c4ccccc4)[C@H]21)C3(C)C` [docetaxel] had an IC50 in test [1] of 0.095 µM.

With cisplatin, the half-maximal inhibitory concentration (IC50) worked out at 6.9 µM in test [2], 2.49 µM in test [3], 2.01 µM in test [4] and 2.25 µM in test [5].

As to `O=C1[O][Pt]2([NH][C@@H]3CCCC[C@H]3[NH]2)[O]C1=O` [oxaliplatin], the IC50 in test [2] is 10.1 µM; in test [4], 2.44 µM; in test [6], 30 µM; in test [7] it was 8.15 µM.
